The term IC50 denotes the concentration that inhibits the measured activity by half. As a reminder, the ED50 is the dose that gives a 50% effect, or the effect in half of the subjects. Read a low ED50 as greater potency. What is called inhibition is the drop in the measured response relative to a control, in per cent.

The text below walks through data of patent US10208066B2, “Imidazopyridazine compounds and their use” (HUTCHISON MEDIPHARMA LIMITED, priority 2014, dated 2019).

In one series the target is PI3K-β (Homo sapiens, UniProt P42338). Description: Transcreener KINASE Assay, fluorescent determination of PI3K enzyme activity. The following applies: for PI3K-β IH % (inhibition rate) / inhibition at 1 µM: at 1 μM; for inhibition at 1 µM: read-out: PI3K-β IH % (inhibition rate). It is filed as biochemical.
Series [1] deals with AKT phosphorylation (p-AKT Ser473) in Ramos cells. Description: Inhibition of AKT phosphorylation in Ramos cell line (anti-IgM stimulated). It is filed as cell-based. The following applies: Homo sapiens; Ramos cells, anti-IgM stimulation; read-out: IC50, inhibition of AKT phosphorylation.
Method: 6×10^4/mL Ramos cells (ATCC, CRL-1596; cells were cultured in RPMI1640 media with 10% FBS) were seeded into a 96-well plate (Beckman Dickinson, No. 356692) at 80 uL/well, 4,800 cells/well. After incubation for 3 hr at 37° C. under 5% CO2, Ramos cells were treated with 10 uL/well various concentrations of test compound (final concentrations of the test compound: 1 uM, 0.3 uM, 0.1 uM, 0.037 uM, 0.012 uM, 0.0041 uM, 0.0014 uM and 0.0005 uM) or 0.3% DMSO for 30 min, and then were stimulated with 10 uL/well 1 ug/ml Anti-IgM (Jackson Immunoresearch, 709-006-073) for 15-20 min. • 1) Cells were fixed with 100 μL of 4% pre-warmed Paraformaldehyde (2% final concentration), and incubated for 45 min at room temperature. • 2) The paraformaldehyde solution was removed. 100 μL of ice-cold methanol was added into each well and the plate was left at 4° C. for 30 min. • 3) The cells were washed for three times with 160 μL PBS. • 4) 40 μL 1:350 dilution of Rabbit anti-p-AKT(Ser^473) antibody (Cell Signaling Technology, 4060L) in antibody dilution buffer (1% BSA, in PBS) were added into each well. The plate was inculpated overnight at 4° C. • 5) The cells were washed for 3 times with 160 uL PBS. • 6) 45 μL of Goat anti-rabbit IgG Alexa488 antibody (Invitrogen, A11034) at a 1:1,000 dilution in antibody dilution buffer (1% BSA, in PBS) were added into each well. The plate was covered with foil to keep out of light and was incubated for 90 min at room temperature. • 7) The cells were washed for 3 times with 160 uL PBS. • 8) 50 μL of 1.5 μM Propidium Iodide (Sigma: P4170) solution was added into each well to determine cell number (1.5 mM Propidium iodide stock was diluted with 1:1,000 in PBS, and the final concentration was 1.5 μM). • 9) The plate was incubated at room temperature for 30 min and then was sealed with a cover-seal. • 10) The plate was loaded into the Acumen Explorer and scan with the appropriate instrument settings.
(§2) Data was analyzed and IC50 values were generated using the add-in software for Microsoft Excel, Xlfit™ (version 5.3).
Series [2] relates to PI3Kδ signaling in basophils. Description: Inhibition of PI3Kδ signaling in basophils from human whole blood. The class given is cell-based. The settings on record: human whole blood, anti-human IgE stimulation, CD63; read-out: IC50, inhibition of PI3Kδ signaling in basophils.
Method: Methods • 1) Heparinized human whole blood was mixed and pipetted into the 96 well v-bottom plate, 100 μL per well. • 2) 10 μL of stimulation buffer (1 mg/mL stock, final concentration of Recombinant human IL-3: 20 ng/mL) was added to the whole blood samples of each well and vortex gently. […] Vortex all the wells once more and incubate for 20 min at 37° C. • 5) Labeling with staining antibody: Degranulation was stopped by incubating the samples on ice for 5 min. 6 μL of staining antibody mixture (anti-CD63-FITC and anti-IgE-PE) was added into each well. Vortex and incubate the wells for 20 min in an ice bath, covered to prevent exposure to light. • 6) The whole blood samples were lysed with 300 uL RBC lysis (pre-warmed to room temperature, 20 to 25° C.). Vortex and incubate the samples for 15 min at room temperature. Spin down cells (5 min, 250×g, 4° C.). The supernatant was aspirated leaving approximately 100 μL in each well. • 7) The blood samples were lysed once more as step 6). • 8) Washing: The samples are washed once with 0.5 mL of washing solution. The plate was centrifuged (5 min, 250×g, 4° C.). The supernatant was aspirated leaving approximately 100 μL in each well. The sample in each well was washed and centrifuged once more as above. • 9) 200 μL of fixing solution (1% papraledehyde in 1% BSA/PBS) was added into each well.
as §2
In a further series the test system is SU-DHL-6 cells. Description: In vitro cell proliferation assay in SU-DHL-6 cell line (CCK-8). It is filed as cell-based. The settings on record: Homo sapiens, SU-DHL-6, 72 h.
The target of another series is PI3K-α (p110α/p85α) (Homo sapiens (Human), UniProt P42336). Description: Transcreener KINASE Assay, fluorescent determination of PI3K enzyme activity. It is filed as biochemical. The settings on record: for inhibition at 1 µM: read-out: PI3K-α IH % (inhibition rate). As for the experimental part:
Inhibition rates were calculated as follow: IH %=(ADP amount under 2% DMSO well−ADP amount under test compound well)/ADP amount under 2% DMSO well×100%.

Series [3] deals with B cells (B220+) activation (CD86). Description: Anti-IgD antibody induced B cells activation in rat whole blood, ex vivo after oral administration. Further details: species or system Wistar rats. As for the experimental part: Activation of B cells (B220+) in rat whole, blood with anti-IgD antibody leading to activation via Ig receptors is known to involve PI3K pathways and sensitive to modulation by PI3Kδ inhibitors, A pharmacodynamics assay was developed to assess activity of PI3Kδ inhibitors ex vivo following oral administration of inhibitors to rats.
(§1) Wistar rats (female, 6-8 weeks old) were used in the experiments. The dose dependency, time course study and PKPD relationship of compound 4 were conducted in normal Wistar rats. […] The control group (6 rats) was treated with the vehicle alone. At designated time points (1 hour, 8 hours, 16 hours and 24 hours after administration), blood samples were collected from rats via retro-orbital bleeding under isofluorane anesthesia into heparinized tubes. The heparin anti-coagulated blood was mixed with anti-rat-IgD, then was incubated at 37° C. under 5% CO2 overnight. Fluorescence signal for CD86 on B220 (B cells) positive cells was detected using a flow cytometer (BD FACSCalibur, BD Biosciences) and data were analyzed by CellQuest software. Plasma was collected to measure compound 4 levels.

Series [4] can be described thus: Plasma levels of compound 4 after oral administration. The class given is in vivo, Wistar rats. The following applies: dose range 0.01 mg/kg to 3 mg/kg. As for the experimental part: as §1
For series [5], the system named is collagen-induced arthritis, paw volume. Description: Rat collagen II induced arthritis (CIA) model. It is filed as in vivo, Wistar rats. As for the experimental part: Rat collagen induced arthritis is an experimental model of polyarthritis that has been widely used for nonclinical testing of numerous anti-arthritic agents that are either under nonclinical or clinical investigation or are currently used as therapeutics in this disease. […] Wistar rats were immunized intradermally with 200 μg bovine collagen H emulsified in Freund's incomplete adjuvant (IFA, Sigma. US) on day 0 and day 7. The hind paw volumes were measured before and after the immunization. […] The naive group was not administered. YiSaiPu (10 mg/kg), a human tumor necrosis factor receptor p75 Fc fusion protein, was administered with intraperitoneal injection on days 10, 12 and 14 as a positive control. The study was terminated on day 18.

The target of a further series is PI3K-δ (p110δ/p85α) (Homo sapiens (Human), UniProt O00329). Description: Transcreener KINASE Assay, fluorescent determination of PI3K enzyme activity. It is filed as biochemical.
A further series has as its target PI3K-γ (p110γ) (Homo sapiens (Human), UniProt P48736). Described as above. It is filed as biochemical. The following applies: for inhibition at 1 µM: read-out: PI3K-γ IH % (inhibition rate).
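Throughout, for PI3K-β IH % (inhibition rate): recombinant PI3K enzyme reaction, 80 min at room temperature, ADP formed detected by far-red competitive fluorescence polarization immunoassay, inhibition relative to ADP in 2% DMSO control wells.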
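Throughout, for PI3K-γ IH % (inhibition rate): ADP produced by p110γ kinase reaction, 80 min at room temperature, detected by far-red fluorescence polarization immunoassay, inhibition relative to 2% DMSO control wells.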

PI3K-α (p110α/p85α), sequence (P42336 whole entry, species assumed): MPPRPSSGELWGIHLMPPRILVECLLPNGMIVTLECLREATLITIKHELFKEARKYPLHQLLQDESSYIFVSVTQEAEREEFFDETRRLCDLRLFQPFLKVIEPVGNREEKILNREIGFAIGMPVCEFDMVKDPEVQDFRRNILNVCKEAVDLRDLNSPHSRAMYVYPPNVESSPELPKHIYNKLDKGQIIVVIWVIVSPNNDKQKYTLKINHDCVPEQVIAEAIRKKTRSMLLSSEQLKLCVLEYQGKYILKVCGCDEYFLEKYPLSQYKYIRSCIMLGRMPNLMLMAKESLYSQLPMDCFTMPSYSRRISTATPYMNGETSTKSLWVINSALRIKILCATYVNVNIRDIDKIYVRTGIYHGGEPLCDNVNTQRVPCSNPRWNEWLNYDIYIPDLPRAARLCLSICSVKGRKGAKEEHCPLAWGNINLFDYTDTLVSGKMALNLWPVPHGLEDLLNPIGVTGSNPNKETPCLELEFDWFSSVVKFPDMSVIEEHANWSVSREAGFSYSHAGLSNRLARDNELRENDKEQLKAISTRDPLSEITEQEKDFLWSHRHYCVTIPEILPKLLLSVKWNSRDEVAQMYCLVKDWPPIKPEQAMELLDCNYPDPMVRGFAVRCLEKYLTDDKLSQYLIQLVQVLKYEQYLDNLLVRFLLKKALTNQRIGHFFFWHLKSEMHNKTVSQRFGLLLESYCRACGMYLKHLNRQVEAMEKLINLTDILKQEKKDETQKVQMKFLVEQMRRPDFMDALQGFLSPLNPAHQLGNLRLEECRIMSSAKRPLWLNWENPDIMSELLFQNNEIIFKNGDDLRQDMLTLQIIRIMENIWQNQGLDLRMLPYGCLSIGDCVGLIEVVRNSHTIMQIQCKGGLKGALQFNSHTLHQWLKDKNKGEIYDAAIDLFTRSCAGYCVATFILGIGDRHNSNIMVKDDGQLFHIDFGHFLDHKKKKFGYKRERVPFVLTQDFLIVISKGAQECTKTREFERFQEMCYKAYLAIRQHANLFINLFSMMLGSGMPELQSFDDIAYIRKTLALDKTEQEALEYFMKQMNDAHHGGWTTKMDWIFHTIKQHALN
PI3K-α (p110α/p85α), sequence (P27986 whole entry partner, species assumed): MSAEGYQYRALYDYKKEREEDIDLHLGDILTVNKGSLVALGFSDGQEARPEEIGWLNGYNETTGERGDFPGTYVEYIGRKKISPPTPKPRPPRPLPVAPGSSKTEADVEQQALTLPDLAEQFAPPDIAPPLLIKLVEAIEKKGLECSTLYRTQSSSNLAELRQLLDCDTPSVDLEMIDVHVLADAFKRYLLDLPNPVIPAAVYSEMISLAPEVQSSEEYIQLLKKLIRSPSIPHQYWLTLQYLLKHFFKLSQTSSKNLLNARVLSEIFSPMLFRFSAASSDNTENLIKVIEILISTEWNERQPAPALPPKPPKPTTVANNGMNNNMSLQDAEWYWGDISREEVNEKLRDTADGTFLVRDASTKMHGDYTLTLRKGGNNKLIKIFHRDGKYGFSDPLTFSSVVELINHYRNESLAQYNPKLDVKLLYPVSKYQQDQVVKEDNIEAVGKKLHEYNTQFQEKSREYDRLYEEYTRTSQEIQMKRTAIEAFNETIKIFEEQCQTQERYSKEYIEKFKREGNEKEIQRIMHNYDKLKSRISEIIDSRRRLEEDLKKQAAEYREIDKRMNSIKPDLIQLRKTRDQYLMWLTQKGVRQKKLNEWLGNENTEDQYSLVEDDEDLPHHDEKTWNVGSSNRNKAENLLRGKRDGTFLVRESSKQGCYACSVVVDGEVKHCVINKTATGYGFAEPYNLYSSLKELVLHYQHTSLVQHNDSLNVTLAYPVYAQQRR
PI3K-δ (p110δ/p85α), sequence (O00329 whole entry, species assumed): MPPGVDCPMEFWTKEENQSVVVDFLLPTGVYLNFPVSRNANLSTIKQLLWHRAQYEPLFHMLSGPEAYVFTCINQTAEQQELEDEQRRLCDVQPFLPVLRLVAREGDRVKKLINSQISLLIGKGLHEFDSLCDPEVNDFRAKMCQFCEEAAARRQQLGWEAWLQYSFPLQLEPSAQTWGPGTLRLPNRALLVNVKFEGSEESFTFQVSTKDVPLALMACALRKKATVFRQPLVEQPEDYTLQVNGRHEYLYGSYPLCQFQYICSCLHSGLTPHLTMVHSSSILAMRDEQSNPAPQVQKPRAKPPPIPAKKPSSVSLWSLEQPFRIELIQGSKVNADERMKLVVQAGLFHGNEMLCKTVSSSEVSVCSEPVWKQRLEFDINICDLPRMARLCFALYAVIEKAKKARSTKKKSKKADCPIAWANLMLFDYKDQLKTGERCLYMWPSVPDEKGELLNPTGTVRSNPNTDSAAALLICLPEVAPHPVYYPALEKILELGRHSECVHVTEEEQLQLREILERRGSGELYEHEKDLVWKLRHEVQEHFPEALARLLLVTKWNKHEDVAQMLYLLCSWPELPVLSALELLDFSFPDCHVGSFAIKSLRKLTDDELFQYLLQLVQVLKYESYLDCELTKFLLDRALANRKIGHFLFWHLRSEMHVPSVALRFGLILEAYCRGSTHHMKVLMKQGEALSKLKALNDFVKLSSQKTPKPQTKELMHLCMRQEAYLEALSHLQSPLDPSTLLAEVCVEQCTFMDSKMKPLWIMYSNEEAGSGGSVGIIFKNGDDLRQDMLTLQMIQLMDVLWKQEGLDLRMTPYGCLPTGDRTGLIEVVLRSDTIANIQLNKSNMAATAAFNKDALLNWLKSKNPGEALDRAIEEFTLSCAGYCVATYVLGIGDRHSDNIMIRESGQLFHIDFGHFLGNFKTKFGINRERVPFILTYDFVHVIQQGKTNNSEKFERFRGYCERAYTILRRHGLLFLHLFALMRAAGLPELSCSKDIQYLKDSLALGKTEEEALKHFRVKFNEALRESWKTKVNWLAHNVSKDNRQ
PI3K-δ (p110δ/p85α), sequence (P27986 whole entry partner, species assumed): as the sequence (P27986 whole entry partner, species assumed) above
PI3K-β, sequence (P42338 whole entry, looked up): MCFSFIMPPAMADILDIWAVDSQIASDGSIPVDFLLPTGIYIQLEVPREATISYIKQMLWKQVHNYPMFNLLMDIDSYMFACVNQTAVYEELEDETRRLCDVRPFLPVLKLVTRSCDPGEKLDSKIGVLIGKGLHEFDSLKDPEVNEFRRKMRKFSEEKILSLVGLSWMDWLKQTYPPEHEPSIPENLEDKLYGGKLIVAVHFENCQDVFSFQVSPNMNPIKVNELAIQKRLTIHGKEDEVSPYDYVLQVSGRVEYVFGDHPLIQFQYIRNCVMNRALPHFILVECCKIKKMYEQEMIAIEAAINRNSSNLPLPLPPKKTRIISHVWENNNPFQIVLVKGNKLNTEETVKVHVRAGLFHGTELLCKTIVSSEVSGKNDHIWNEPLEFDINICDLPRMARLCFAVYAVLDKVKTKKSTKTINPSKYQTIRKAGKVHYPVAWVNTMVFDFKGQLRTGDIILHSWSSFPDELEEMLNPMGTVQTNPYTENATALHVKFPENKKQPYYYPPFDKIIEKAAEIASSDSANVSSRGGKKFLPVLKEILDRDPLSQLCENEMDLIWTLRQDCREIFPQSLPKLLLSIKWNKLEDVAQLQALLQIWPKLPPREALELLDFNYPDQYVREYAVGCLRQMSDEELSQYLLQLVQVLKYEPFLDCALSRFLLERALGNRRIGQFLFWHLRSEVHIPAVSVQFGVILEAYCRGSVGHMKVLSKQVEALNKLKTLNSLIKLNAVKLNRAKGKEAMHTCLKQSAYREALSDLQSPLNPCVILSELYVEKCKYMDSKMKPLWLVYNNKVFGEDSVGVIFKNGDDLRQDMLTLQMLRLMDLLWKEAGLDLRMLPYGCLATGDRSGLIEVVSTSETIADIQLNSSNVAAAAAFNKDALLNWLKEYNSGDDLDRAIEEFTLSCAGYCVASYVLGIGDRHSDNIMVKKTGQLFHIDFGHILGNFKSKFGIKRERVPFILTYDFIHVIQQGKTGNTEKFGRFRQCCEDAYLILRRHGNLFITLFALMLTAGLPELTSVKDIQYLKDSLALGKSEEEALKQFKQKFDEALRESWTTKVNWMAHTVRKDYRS
PI3K-γ (p110γ), sequence (P48736 whole entry, species assumed): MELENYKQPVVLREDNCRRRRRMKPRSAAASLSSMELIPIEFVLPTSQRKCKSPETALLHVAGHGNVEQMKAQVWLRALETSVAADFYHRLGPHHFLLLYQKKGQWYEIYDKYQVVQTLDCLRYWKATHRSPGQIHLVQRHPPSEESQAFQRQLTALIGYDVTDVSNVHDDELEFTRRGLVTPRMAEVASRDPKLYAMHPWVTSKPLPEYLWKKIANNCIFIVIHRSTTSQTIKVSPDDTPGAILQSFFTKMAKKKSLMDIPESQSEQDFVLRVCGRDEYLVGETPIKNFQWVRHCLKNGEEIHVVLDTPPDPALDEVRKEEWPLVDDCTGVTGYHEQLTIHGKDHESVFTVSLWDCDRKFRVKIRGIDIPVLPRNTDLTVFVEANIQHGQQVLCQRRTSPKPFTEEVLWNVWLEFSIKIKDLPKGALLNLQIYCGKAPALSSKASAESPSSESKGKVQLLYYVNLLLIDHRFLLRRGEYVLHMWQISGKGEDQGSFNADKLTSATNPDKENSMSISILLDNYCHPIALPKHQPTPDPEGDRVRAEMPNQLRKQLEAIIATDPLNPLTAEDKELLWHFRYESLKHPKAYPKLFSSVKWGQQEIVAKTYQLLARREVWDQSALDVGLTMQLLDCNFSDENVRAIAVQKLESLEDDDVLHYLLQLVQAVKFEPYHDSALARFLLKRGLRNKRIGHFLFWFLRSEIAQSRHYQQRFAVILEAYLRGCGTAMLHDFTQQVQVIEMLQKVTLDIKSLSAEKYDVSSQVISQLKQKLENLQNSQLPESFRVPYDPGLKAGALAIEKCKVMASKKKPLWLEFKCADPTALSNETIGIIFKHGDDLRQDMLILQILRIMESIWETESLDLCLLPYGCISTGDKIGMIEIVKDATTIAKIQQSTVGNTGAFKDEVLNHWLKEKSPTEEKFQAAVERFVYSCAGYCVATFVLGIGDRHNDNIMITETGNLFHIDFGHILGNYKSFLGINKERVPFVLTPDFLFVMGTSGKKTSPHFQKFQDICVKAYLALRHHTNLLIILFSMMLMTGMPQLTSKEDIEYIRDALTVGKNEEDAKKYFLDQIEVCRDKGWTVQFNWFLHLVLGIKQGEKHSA
Method for PI3K-β: (§3) It is a universal, homogenous, high throughput screening (HTS) technology using a far-red, competitive fluorescence polarization immunoassay based on the detection of ADP to monitor the activity of enzymes that catalyze group transfer reactions. […] The reaction mixture was added into desired wells of a 96-well plate. The plate was sealed and incubated for 80 min at room temperature. • 2) Next, 25 uL ADP detection mix was added into each well. The plate was sealed again and incubated for 60 min at room temperature. Then fluorescence polarization was measured by Tecan Infinite F500 Reader.
as §2
Method for PI3K-γ (p110γ): as §3, §2
Method for PI3K-δ (p110δ/p85α): as §3, §2
Method for SU-DHL-6 cells: Growth inhibition assays were carried out using 10% FBS supplemented media. Cells were seeded at a concentration of 15000 cells/well in a 96 well plate. Test compound dilution at different concentrations (final concentrations of the test compound: 1 uM, 0.3 uM, 0.1 uM, 0.037 uM, 0.012 uM, 0.0041 uM, 0.0014 uM and 0.0005 uM) were added after 24 hours. Growth was assessed using Cell Counting Kit-8 (CCK-8) (Dojindo, Cat#CK04) after the test compound were incubated for 72 h. Absorbance was read at the wave length 450 nm on Multiskan MK3 machine (Thermo).
as §2

Regarding `CCC(Nc1ncnc2[nH]cnc12)c1cc2ncc(Cl)n2nc1-c1ccccc1F` (single isomer, unassigned) [Compound 25], the “PI3K-β IH % (inhibition rate)” value on PI3K-β turned out to be 22.8%. In addition, the IC50 in [1] was determined as 0.005 µM; in [2], 0.037 µM; with SU-DHL-6 cells it was 0.032 µM.

On to `C[C@H](Nc1ncnc(N)c1C#N)c1cc2ncc(Cl)n2nc1-c1ccccc1` [Compound 4, (S)-4-amino-6-((1-(3-chloro-6-phenylimidazo[1,2-b]pyridazin-7-yl)ethyl)amino)pyrimidine-5-carbonitrile], for which the half-maximal inhibitory concentration (IC50) at PI3K-α (p110α/p85α) was more than 1 µM; in series [1], 0.002 µM. Besides, in series [3] (Rattus norvegicus, B-cell, at 2 hr post-dose, oral), the ED50 is less than 0.01 mg/kg. Besides, the inhibition at 0.1 mg/kg in series [3] (Rattus norvegicus, B-cell, single oral 0.1 mg/kg dose, up to 24 hr) was more than 90%. For the same compound, in series [3] (oral, dose range 0.01 to 3 mg/kg, p<0.01), the “anti-IgD induced B cell activation in rat whole blood, ex vivo” value was “inhibited anti-IgD induced B cell activation”. Besides, the Plasma levels entry in [4] is “dose-proportional”. Also, the “mean paw volume at end of treatment vs vehicle-treated diseased animals” value in series [5] (PO QD 7 days, p<0.01 except at lowest dose 0.03 mg/kg) is listed as “significantly decreased”. The “effects on parameters associated with established type II collagen-induced arthritis” value in [5] (daily oral treatment) was “dose-dependent beneficial effects”.

Turning to `CC[C@H](Nc1ncnc(N)c1C#N)c1cc2ncc(Cl)n2nc1-c1ccccc1` [Compound 6, (S)-4-amino-6-((1-(3-chloro-6-phenylimidazo[1,2-b]pyridazin-7-yl)propyl)amino)pyrimidine-5-carbonitrile], the IC50 on PI3K-δ (p110δ/p85α) was 0.001 µM; against PI3K-β, 0.303 µM; against PI3K-α (p110α/p85α), more than 1 µM; in [1], 0.0003 µM; in series [2], 0.006 µM; in the series with SU-DHL-6 cells, 0.003 µM. Besides, the inhibition at 1 µM at PI3K-γ (p110γ) (at 1 μM) was 61.1%.

On to `C[C@H](Nc1ncnc(N)c1C#N)c1cc2ncc(Cl)n2nc1-c1ccccn1` [Compound 8, (S)-4-amino-6-((1-(3-chloro-6-(pyridin-2-yl)imidazo[1,2-b]pyridazin-7-yl)ethyl)amino)pyrimidine-5-carbonitrile], for which the IC50 was 0.01 µM at PI3K-δ (p110δ/p85α), more than 1 µM against PI3K-α (p110α/p85α), 0.009 µM in [2] and 0.031 µM in the series with SU-DHL-6 cells. Also, the inhibition at 1 µM at PI3K-γ (p110γ) (at 1 μM) is -1.4%; at PI3K-β it was 37.7%.

For the compound `C[C@H](Nc1ncnc2[nH]cnc12)c1cc2ncc(Cl)n2nc1-c1ccccc1F` [Compound 13], the half-maximal inhibitory concentration (IC50) at PI3K-δ (p110δ/p85α) was 0.003 µM; on PI3K-γ (p110γ), 0.484 µM; at PI3K-β, 1.92 µM; at PI3K-α (p110α/p85α) it was more than 1 µM; in [1], 0.004 µM; in series [2], 0.01 µM. The IC50 with SU-DHL-6 cells came to 0.011 µM.

Consider `C[C@H](Nc1ncnc(N)c1C#N)c1cc2ncc(Cl)n2nc1-c1cccc(F)c1` [Compound 15], for which the IC50 against PI3K-δ (p110δ/p85α) is 0.001 µM; against PI3K-γ (p110γ), 0.393 µM; on PI3K-α (p110α/p85α), more than 1 µM; in series [1] it was 0.0005 µM; in series [2] it was 0.002 µM; in the series with SU-DHL-6 cells, 0.002 µM. In addition, at PI3K-β, the inhibition at 1 µM was 59%.

Regarding `C[C@H](Nc1ncnc2[nH]ccc12)c1cc2ncc(Cl)n2nc1-c1ccccc1` [Compound 17], the IC50 against PI3K-δ (p110δ/p85α) is 0.026 µM; on PI3K-α (p110α/p85α), more than 1 µM; in [2], 0.618 µM; in the series with SU-DHL-6 cells it was 0.172 µM. For the same compound, the inhibition at 1 µM on PI3K-γ (p110γ) (at 1 μM) turned out to be 61.2%; on PI3K-β, 15.8%.

For `CCC(Nc1ncnc2[nH]cnc12)c1cc2ncc(Cl)n2nc1-c1ccccc1` (stereo not drawn) [Compound 18], the IC50 was 0.004 µM on PI3K-δ (p110δ/p85α); 0.617 µM at PI3K-γ (p110γ); more than 1 µM against PI3K-α (p110α/p85α); 0.088 µM in series [2]; 0.026 µM with SU-DHL-6 cells. Also, at PI3K-β, the “PI3K-β IH % (inhibition rate)” value turned out to be 42%.

In the case of `CCC(Nc1ncnc(N)c1C#N)c1cc2ncc(Cl)n2nc1-c1ccccc1F` (stereo not drawn) [Compound 19], the IC50 is 0.002 µM against PI3K-δ (p110δ/p85α); 1.97 µM against PI3K-γ (p110γ); 1.07 µM against PI3K-β; more than 1 µM against PI3K-α (p110α/p85α); 0.016 µM in series [2]; 0.023 µM in the series on SU-DHL-6 cells.

With `C[C@@H](c1cc2ncc(Cl)n2nc1-c1ccccc1)n1cnc2c(N)ncnc21` [Compound 20, (S)-9-(1-(3-chloro-6-phenylimidazo[1,2-b]pyridazin-7-yl)ethyl)-9H-purin-6-amine], the half-maximal inhibitory concentration (IC50) against PI3K-δ (p110δ/p85α) was 0.073 µM; at PI3K-α (p110α/p85α), more than 1 µM; in series [2] it was 0.397 µM; in the series on SU-DHL-6 cells, 0.262 µM. Moreover, the inhibition at 1 µM at PI3K-γ (p110γ) (at 1 μM) is 43.1%; on PI3K-β, 17.4%.

In the case of `Cc1cnc2cc([C@H](C)Nc3ncnc(N)c3C#N)c(-c3ccccc3)nn12` [Compound 22], the IC50 on PI3K-δ (p110δ/p85α) is 0.002 µM; against PI3K-γ (p110γ), 0.322 µM; in series [1] it was 0.004 µM; in series [2] it was 0.002 µM; in the series on SU-DHL-6 cells, 0.019 µM. Also, the inhibition at 1 µM on PI3K-β stood at 76.7%; on PI3K-α (p110α/p85α), 13.6%.

Take `Cc1cnc2cc([C@H](C)Nc3ncnc4[nH]cnc34)c(-c3ccccc3)nn12` [Compound 23]: the IC50 against PI3K-δ (p110δ/p85α) stood at 0.006 µM; on PI3K-γ (p110γ) it was 0.343 µM; in [1], 0.012 µM; in series [2], 0.006 µM; in the series on SU-DHL-6 cells it was 0.078 µM. Besides, the inhibition at 1 µM at PI3K-β worked out at 28.7%; on PI3K-α (p110α/p85α), 3.2%.

Turning to `CCC(Nc1ncnc(N)c1C#N)c1cc2ncc(Cl)n2nc1-c1cccc(F)c1` (stereo not drawn) [Compound 24], the IC50 amounted to 0.002 µM against PI3K-δ (p110δ/p85α), 0.007 µM in series [1], 0.011 µM in [2] and 0.011 µM in the series on SU-DHL-6 cells. The inhibition at 1 µM at PI3K-γ (p110γ) (at 1 μM) came to 44.5%; on PI3K-β, 46.6%.

On to `CCC(Nc1ncnc(N)c1C#N)c1cc2ncc(Cl)n2nc1-c1ccccn1` (stereo not drawn) [Compound 29], for which the concentration for half-maximal inhibition (IC50) against PI3K-δ (p110δ/p85α) turned out to be 0.003 µM; against PI3K-β, 0.174 µM; in the series with SU-DHL-6 cells, 0.011 µM. On PI3K-γ (p110γ) (at 1 μM), the “PI3K-γ IH % (inhibition rate)” value was 35%.
